Key:
Cholinesterase [1] = target: Cholinesterase (Equus caballus, UniProt P81908); experiment: Inhibition of equine serum BuChE using butyrylthiocholine iodide as substrate by Ellman's method
Acetylcholinesterase [2] = target: Acetylcholinesterase (Electrophorus electricus, UniProt O42275); experiment: Inhibition of electric eel AChE using acetylthiocholine iodide as substrate by Ellman's method
[3] = target: T1, Amine oxidase [flavin-containing] A (Homo sapiens, UniProt P21397); experiment: Inhibition of recombinant human MAO-A expressed in baculovirus infected insect cell microsomes using kynuramine as substrate measured after 30 mins by fluorescence based assay
T1 sequence (P21397 whole entry): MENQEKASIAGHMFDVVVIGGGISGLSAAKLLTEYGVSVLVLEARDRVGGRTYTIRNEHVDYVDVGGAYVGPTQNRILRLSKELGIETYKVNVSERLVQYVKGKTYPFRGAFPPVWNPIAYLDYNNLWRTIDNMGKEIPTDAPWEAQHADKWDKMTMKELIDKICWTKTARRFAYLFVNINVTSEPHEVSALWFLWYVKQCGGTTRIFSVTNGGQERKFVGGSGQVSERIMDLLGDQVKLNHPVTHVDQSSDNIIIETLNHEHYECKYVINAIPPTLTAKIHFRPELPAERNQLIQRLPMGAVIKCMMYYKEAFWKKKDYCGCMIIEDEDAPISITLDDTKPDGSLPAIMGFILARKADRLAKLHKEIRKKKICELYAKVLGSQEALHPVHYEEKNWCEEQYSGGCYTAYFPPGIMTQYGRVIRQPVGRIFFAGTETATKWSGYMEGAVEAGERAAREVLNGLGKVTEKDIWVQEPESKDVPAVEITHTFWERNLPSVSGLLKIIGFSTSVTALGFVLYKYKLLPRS

[4] = target: T2, Amine oxidase [flavin-containing] B (Homo sapiens, UniProt P27338); experiment: Inhibition of recombinant human MAO-B expressed in baculovirus infected insect cell microsomes using kynuramine as substrate measured after 30 mins by fluorescence based assay
T2 sequence (P27338 whole entry): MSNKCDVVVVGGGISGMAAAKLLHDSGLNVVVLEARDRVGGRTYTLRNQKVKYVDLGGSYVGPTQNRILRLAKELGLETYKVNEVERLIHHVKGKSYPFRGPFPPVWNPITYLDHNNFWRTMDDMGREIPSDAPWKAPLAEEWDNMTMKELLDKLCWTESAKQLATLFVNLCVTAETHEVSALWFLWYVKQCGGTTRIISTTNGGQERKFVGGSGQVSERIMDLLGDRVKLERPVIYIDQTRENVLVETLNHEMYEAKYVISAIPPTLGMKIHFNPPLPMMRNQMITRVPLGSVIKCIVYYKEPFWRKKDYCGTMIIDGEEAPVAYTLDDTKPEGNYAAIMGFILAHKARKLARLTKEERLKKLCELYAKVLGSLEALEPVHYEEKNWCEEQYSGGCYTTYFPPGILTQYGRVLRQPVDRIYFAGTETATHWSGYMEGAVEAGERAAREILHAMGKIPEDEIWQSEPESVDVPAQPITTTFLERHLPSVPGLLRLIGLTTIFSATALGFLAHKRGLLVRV

Homo sapiens = species on record: Homo sapiens; experiment: Selectivity index, ratio of IC50 for recombinant human MAO-A to IC50 for recombinant human MAO-B
[5] = target: T2, Amine oxidase [flavin-containing] B; experiment: Inhibition of recombinant human MAO-B expressed in baculovirus infected insect cell microsomes using kynuramine as substrate measured after 30 mins by spectrophotometric assay
[6] = target: T1, Amine oxidase [flavin-containing] A; experiment: Inhibition of recombinant human MAO-A expressed in baculovirus infected insect cell microsomes at 10 uM using kynuramine as substrate measured after 30 mins by fluorescence based assay relative to control; conditions: 0.5 h
[7] = target: Cholinesterase (Equus caballus) (UniProt P81908); experiment: Inhibition of equine serum BuChE at 10 uM using butyrylthiocholine iodide as substrate by Ellman's method relative to control
Chain of Cholinesterase (Equus caballus) (P81908 whole entry): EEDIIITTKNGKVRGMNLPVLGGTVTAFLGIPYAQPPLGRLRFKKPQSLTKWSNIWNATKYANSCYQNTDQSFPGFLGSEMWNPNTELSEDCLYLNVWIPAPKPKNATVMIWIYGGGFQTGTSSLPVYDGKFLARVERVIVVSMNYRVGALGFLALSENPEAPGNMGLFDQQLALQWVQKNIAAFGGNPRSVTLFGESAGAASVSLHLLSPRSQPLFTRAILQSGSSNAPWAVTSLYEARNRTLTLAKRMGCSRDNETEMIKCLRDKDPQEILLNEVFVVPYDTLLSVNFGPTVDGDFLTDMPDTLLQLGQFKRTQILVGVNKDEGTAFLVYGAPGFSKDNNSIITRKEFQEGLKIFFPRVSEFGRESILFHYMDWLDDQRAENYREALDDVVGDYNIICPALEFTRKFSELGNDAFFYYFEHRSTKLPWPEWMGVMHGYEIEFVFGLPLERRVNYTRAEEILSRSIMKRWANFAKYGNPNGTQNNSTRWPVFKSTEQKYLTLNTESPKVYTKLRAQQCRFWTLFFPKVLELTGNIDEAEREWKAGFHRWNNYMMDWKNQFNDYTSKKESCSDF

[8] = Efflux ratio of apparent permeability in MDCK2-MDR1 cells by UV-Visible spectrophotometric method; assay type: ADME, cell-based, Canis lupus familiaris; conditions: dog, MDCK-MDR1
[9] = Half life in human serum at 100 uM by RP-HPLC method; assay type: ADME, cell-free
[10] = Drug metabolism in pH 7.4 PBS buffer assessed as 7-({1-[3-(Hydroxymethyl)benzyl]piperidin-4-yl}methoxy)-3,4-dimethyl-2H-chromen-2-one formation at 100 uM after 24 hrs by RP-HPLC method
[11] = Drug metabolism in PBS buffer assessed as nitric oxide release at 150 uM in presence of cysteine by Griess reagent based UV-Visible spectrophotometric method; conditions: TDE = time-dependent effect
[12] = Apparent permeability from apical to basolateral side in MDCK2-MDR1 cells by UV-Visible spectrophotometric method; assay type: ADME, cell-based, Canis lupus familiaris; conditions: dog, MDCK-MDR1
Acetylcholinesterase [13] = target: Acetylcholinesterase (Homo sapiens, UniProt P22303); experiment: Inhibition of human recombinant AChE using acetylthiocholine iodide as substrate by Ellman's method
Chain of Acetylcholinesterase (Homo sapiens, UniProt P22303) (P22303 whole entry): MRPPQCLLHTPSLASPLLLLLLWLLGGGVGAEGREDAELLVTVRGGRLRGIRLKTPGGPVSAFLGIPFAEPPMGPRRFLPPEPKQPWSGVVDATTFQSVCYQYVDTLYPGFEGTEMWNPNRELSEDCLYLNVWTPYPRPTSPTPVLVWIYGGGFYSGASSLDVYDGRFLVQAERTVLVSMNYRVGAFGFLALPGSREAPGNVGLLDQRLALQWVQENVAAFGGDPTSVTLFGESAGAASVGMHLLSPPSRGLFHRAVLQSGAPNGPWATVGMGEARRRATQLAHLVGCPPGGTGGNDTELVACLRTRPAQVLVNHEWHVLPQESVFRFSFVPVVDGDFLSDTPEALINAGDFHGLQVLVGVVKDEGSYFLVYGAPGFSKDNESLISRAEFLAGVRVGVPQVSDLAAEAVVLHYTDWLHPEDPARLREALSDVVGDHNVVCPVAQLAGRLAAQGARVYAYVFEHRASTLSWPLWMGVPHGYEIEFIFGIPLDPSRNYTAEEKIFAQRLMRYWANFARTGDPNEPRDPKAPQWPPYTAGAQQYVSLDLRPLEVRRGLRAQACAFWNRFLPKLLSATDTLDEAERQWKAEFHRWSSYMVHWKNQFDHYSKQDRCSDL

SH-SY5Y [14] = experiment: Neuroprotection against rotenone/H2O2-induced cell death in human SH-SY5Y cells assessed as increase in cell viability preincubated for 24 hrs followed by rotenone/H2O2 addition measured after 24 hrs by MTT assay; assay type: functional, cell-based
[15] = Apparent permeability from basolateral to apical side in MDCK2-MDR1 cells by UV-Visible spectrophotometric method; assay type: ADME, cell-based, Canis lupus familiaris; conditions: dog, MDCK-MDR1
[16] = Drug metabolism in pH 7.4 PBS buffer assessed as 7-({1-[3-(Hydroxymethyl)benzyl]piperidin-4-yl}methoxy)-3,4-dimethyl-2H-chromen-2-one formation at 100 uM up to 30 hrs in presence of glutathione by RP-HPLC method
[17] = Drug metabolism in pH 7.4 PBS buffer assessed as 7-({1-[3-(Hydroxymethyl)benzyl]piperidin-4-yl}methoxy)-3,4-dimethyl-2H-chromen-2-one formation at 100 uM up to 30 hrs in presence of cysteine by RP-HPLC method
SH-SY5Y [18] = experiment: Cytotoxicity against human SH-SY5Y cells assessed as reduction in cell viability after 24 hrs by MTT assay; assay type: cell-based
Cholinesterase [19] = target: T3, Cholinesterase (Homo sapiens, UniProt P06276); experiment: Inhibition of human serum BuChE at 10 uM using butyrylthiocholine iodide as substrate by Ellman's method relative to control
T3 sequence (P06276 whole entry): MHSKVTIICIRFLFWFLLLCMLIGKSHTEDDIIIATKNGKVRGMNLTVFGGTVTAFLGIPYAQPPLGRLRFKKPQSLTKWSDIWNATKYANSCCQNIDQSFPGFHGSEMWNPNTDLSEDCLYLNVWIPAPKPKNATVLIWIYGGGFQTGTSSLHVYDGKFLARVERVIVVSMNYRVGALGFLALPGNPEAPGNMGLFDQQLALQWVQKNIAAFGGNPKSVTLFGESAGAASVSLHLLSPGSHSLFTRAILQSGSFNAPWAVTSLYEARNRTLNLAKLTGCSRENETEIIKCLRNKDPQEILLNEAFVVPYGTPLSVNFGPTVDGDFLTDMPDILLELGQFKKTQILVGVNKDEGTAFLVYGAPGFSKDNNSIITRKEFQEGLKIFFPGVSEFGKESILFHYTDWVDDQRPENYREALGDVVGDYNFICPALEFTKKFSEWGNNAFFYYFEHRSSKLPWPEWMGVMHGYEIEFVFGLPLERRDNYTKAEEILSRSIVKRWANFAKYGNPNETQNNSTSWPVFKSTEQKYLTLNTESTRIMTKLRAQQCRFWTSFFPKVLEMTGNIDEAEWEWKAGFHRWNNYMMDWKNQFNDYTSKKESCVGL

[20] = Selectivity index, ratio of IC50 for equine serum BuChE to IC50 for electric eel AChE
Cholinesterase [21] = target: T3, Cholinesterase; experiment: Inhibition of human serum BuChE using butyrylthiocholine iodide as substrate by Ellman's method
[22] = target: T2, Amine oxidase [flavin-containing] B; experiment: Inhibition of recombinant human MAO-B expressed in baculovirus infected insect cell microsomes at 10 uM using kynuramine as substrate measured after 30 mins by fluorescence based assay relative to control; conditions: 0.5 h
[23] = Drug metabolism in pH 7.4 PBS buffer assessed as 7-{[1-(3-Hydroxypropyl)piperidin-4-yl]methoxy}-3,4-dimethyl-2H-chromen-2-one formation at 100 uM up to 30 hrs in presence of cysteine by RP-HPLC method
[24] = Drug metabolism in pH 7.4 PBS buffer assessed as 7-{[1-(3-Hydroxypropyl)piperidin-4-yl]methoxy}-3,4-dimethyl-2H-chromen-2-one formation at 100 uM up to 30 hrs in presence of glutathione by RP-HPLC method
[25] = Drug metabolism in pH 7.4 PBS buffer assessed as 7-{[1-(3-Hydroxypropyl)piperidin-4-yl]methoxy}-3,4-dimethyl-2H-chromen-2-one formation at 100 uM after 24 hrs by RP-HPLC method

Chain of Acetylcholinesterase (Electrophorus electricus, UniProt O42275) (O42275 whole entry): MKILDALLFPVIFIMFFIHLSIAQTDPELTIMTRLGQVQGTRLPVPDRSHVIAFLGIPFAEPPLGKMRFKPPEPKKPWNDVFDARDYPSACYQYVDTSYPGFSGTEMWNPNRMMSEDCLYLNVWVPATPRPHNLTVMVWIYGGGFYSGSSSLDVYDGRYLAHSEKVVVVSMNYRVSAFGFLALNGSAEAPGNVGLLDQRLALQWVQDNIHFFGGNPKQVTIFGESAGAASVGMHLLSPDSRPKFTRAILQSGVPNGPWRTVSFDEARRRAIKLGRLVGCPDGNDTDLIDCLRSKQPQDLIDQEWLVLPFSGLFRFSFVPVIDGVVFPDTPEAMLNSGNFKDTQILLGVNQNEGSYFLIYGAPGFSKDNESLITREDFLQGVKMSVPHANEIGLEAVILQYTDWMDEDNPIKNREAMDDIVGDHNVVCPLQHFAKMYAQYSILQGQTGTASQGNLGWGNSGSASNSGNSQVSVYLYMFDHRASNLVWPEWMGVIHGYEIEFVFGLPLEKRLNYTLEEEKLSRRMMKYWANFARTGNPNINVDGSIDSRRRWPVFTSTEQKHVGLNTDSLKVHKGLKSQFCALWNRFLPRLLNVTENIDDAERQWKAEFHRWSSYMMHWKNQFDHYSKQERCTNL
Chain of Cholinesterase (Equus caballus, UniProt P81908) (P81908 whole entry): as the sequence (P81908 whole entry) above

Row | SMILES | IC50 (Cholinesterase [1]) [nM] | IC50 (Acetylcholinesterase [2]) [nM] | IC50 [3] [nM] | IC50 [4] [nM] | inhibition at 10 µM [6] [%] | inhibition [7] [%] | also measured
1 | Cc1c(C)c2ccc(OCC3CCCN(Cc4ccc(CO)cc4)C3)cc2oc1=O (stereo not drawn) | 8600 | 1200 | 1100 | 76 | – | – | –
2 | Cc1c(C)c2ccc(OCC3CCN(Cc4ccc(CO)cc4)CC3)cc2oc1=O | 8800 | 1000 | 1400 | 29 | – | – | Ratio IC50 (Homo sapiens): 48; IC50 [5]: 39 nM
3 | Cc1c(C)c2ccc(OCC3CCCN(CCCO)C3)cc2oc1=O (stereo not drawn) | – | 1800 | – | 1500 | 41 | 26 | –
4 | Cc1c(C)c2ccc(OCC3CCN(Cc4cccc(CO[N+](=O)[O-])c4)CC3)cc2oc1=O | – | – | 230 | 51 | – | – | efflux ratio [8]: 1.33; half-life at 100 µM [9]: 36.8 h; Drug metabolism [10]: 7%; Drug metabolism [11]: Tde; Papp A→B [12]: 12.4 ×10⁻⁶ cm/s; IC50 (Acetylcholinesterase [13]): 1300 nM; Activity (SH-SY5Y [14]): Dose-dependent effect; Papp B→A [15]: 16.5 ×10⁻⁶ cm/s; Drug metabolism [16]: Metabolite detected; Drug metabolism [17]: Metabolite detected; Activity (SH-SY5Y [18]): 36 µM
5 | Cc1c(C)c2ccc(OCC3CCN(Cc4ccc(CCO)cc4)CC3)cc2oc1=O | – | 1200 | 1700 | 120 | – | 41 | –
6 | CN(C)Cc1cc(=O)oc2cc(OCc3ccc(CO)cc3)ccc12 | 11000 | 1300 | – | 630 | 23 | – | IC50 [5]: 770 nM
7 | Cc1c(C)c2ccc(OCC3CCN(CCCO)CC3)cc2oc1=O | – | 1300 | – | 480 | 44 | 30 | efflux ratio [8]: 1.5; Papp A→B [12]: 9.92 ×10⁻⁶ cm/s; IC50 (Acetylcholinesterase [13]): 890 nM; Activity (SH-SY5Y [14]): Dose-dependent effect; inhibition (Cholinesterase [19]): < 5%; Papp B→A [15]: 14.9 ×10⁻⁶ cm/s; Activity (SH-SY5Y [18]): > 100 µM
8 | CN(C)Cc1ccc(COc2ccc3c(CO)cc(=O)oc3c2)cc1 | – | 4500 | – | 78 | 20 | 43 | IC50 [5]: 74 nM
9 | Cc1c(C)c2ccc(OCC3CCN(Cc4cccc(CO)c4)CC3)cc2oc1=O | 1300 | 1000 | 1900 | 76 | – | – | efflux ratio [8]: 1.09; Papp A→B [12]: 19.8 ×10⁻⁶ cm/s; IC50 (Acetylcholinesterase [13]): 1400 nM; Activity (SH-SY5Y [14]): Dose-dependent effect; Papp B→A [15]: 21.5 ×10⁻⁶ cm/s; Activity (SH-SY5Y [18]): 43 µM
10 | CN(C)Cc1cccc(COc2ccc3c(CO)cc(=O)oc3c2)c1 | – | 5900 | – | 54 | 42 | 36 | –
11 | Cc1cc(=O)oc2cc(OCC3CCN(Cc4ccc(CO)cc4)CC3)ccc12 | – | 1600 | 11000 | 600 | – | 45 | –
12 | Cc1cc2ccc(OCC3CCN(Cc4ccc(CO)cc4)CC3)cc2oc1=O | 8100 | 3000 | – | 3100 | 43 | – | –
13 | CN(C)Cc1cc(=O)oc2cc(OCc3cccc(CO)c3)ccc12 | – | 4400 | – | 1100 | 21 | 35 | –
14 | Cc1c(C)c2ccc(OCC3CCCN(Cc4cccc(CO)c4)C3)cc2oc1=O (stereo not drawn) | 2700 | 900 | 2200 | 110 | – | – | –
15 | Cc1c(C)c2ccc(OCC3CCN(CCCCO)CC3)cc2oc1=O | 8300 | 500 | – | 3600 | 30 | – | –
16 | Cc1cc2ccc(OCC3CCN(Cc4cccc(CO)c4)CC3)cc2oc1=O | 910 | 3200 | 3900 | 1100 | – | – | –
17 | Cc1c(C)c2ccc(OCC3CCN(Cc4cccc(OCCCO)c4)CC3)cc2oc1=O | 180 | 1800 | 550 | 780 | – | – | Ratio IC50 (Homo sapiens): 0.7; Ratio IC50 [20]: 0.1; IC50 (Acetylcholinesterase [13]): 840 nM; IC50 (Cholinesterase [21]): 740 nM
18 | Cc1c(C)c2ccc(OCCC3CCN(CCCO)CC3)cc2oc1=O | – | 720 | – | – | 35 | 39 | inhibition at 10 µM [22]: 31%
19 | Cc1c(C)c2ccc(OCC3CCN(CCCO[N+](=O)[O-])CC3)cc2oc1=O | – | – | – | 250 | 36 | – | efflux ratio [8]: 3.17; half-life at 100 µM [9]: 23 h; Drug metabolism [11]: Tde; Drug metabolism [23]: Metabolite not detected; Papp A→B [12]: 4.96 ×10⁻⁶ cm/s; IC50 (Acetylcholinesterase [13]): 860 nM; Activity (SH-SY5Y [14]): Dose-dependent effect; Drug metabolism [24]: Metabolite not detected; inhibition (Cholinesterase [19]): < 5%; Papp B→A [15]: 15.7 ×10⁻⁶ cm/s; Drug metabolism [25]: Metabolite detected; Activity (SH-SY5Y [18]): > 100 µM
20 | Cc1c(C)c2ccc(OCc3cccc(CN4CCC(CO)CC4)c3)cc2oc1=O | 1000 | 2900 | – | 320 | 23 | – | –
21 | Cc1cc(=O)oc2cc(OCC3CCN(Cc4cccc(CO)c4)CC3)ccc12 | 1900 | 1600 | 3500 | 480 | – | – | –
22 | O=c1ccc2ccc(OCC3CCCN(CCCO)C3)cc2o1 (stereo not drawn) | 1700 | 3500 | – | – | 14 | – | inhibition at 10 µM [22]: 42%

From ChEMBL document CHEMBL4325863, “Investigating alkyl nitrates as nitric oxide releasing precursors of multitarget acetylcholinesterase-monoamine oxidase B inhibitors” (Eur J Med Chem, 2019)
